Data as given in article PMC6093661, “Vitamin E hydroquinone is an endogenous regulator of ferroptosis via redox control of 15-lipoxygenase” (PLoS ONE, 2018).

Key:
Q7 cells [1] = test: Intracellular quantification of αT, αTQ and αTHQ in Q7 cells (LC-MS/MS, succinate capping); details: all cases tested (basal, αT- or αTQ-supplemented)
[2] = ORAC (oxygen radical absorbance capacity) assay; details: average of 25 and 12.5 μM compound; mean, SEM, n = 6
Protocol: ORAC assay kits were purchased from Cell Biolabs. Assays were performed per the manufacturer’s instructions for lipophilic samples with minor modifications. DMSO stock solutions of compounds were diluted in an anaerobic glovebox to final concentrations of 25 and 12.5 μM in triplicate. A standard curve of Trolox® between 0–100 μM in triplicate per concentration was also generated on each assay plate. Diluted compounds and standards were removed from the glovebox and reactions initiated by addition of aerobic fluorescein reagent and radical initiator. Fluorescein fluorescence was monitored at excitation wavelength of 480 nm and emission wavelength of 520 nm every minute for one hour. AUC analysis was performed as described in the kit protocol. The “Trolox equivalents” at each concentration of test compound were calculated and the average Trolox equivalents at the two compound concentrations are presented. The errors were determined by propagating errors from the SEMs of the triplicate determinations to the averages across the two triplicate determinations.

[3] = target: T1, Soybean 15-lipoxygenase (SLO) (Glycine max, UniProt P08170); test: EPR spectroscopy of lipoxygenase active-site iron redox state; assay type: biochemical; details: SLO oxidised with lipid-OOH set to 100% Fe3+; addition of compound
T1 construct: purchased Cayman Chemical 60700
T1 sequence (P08170 1-839): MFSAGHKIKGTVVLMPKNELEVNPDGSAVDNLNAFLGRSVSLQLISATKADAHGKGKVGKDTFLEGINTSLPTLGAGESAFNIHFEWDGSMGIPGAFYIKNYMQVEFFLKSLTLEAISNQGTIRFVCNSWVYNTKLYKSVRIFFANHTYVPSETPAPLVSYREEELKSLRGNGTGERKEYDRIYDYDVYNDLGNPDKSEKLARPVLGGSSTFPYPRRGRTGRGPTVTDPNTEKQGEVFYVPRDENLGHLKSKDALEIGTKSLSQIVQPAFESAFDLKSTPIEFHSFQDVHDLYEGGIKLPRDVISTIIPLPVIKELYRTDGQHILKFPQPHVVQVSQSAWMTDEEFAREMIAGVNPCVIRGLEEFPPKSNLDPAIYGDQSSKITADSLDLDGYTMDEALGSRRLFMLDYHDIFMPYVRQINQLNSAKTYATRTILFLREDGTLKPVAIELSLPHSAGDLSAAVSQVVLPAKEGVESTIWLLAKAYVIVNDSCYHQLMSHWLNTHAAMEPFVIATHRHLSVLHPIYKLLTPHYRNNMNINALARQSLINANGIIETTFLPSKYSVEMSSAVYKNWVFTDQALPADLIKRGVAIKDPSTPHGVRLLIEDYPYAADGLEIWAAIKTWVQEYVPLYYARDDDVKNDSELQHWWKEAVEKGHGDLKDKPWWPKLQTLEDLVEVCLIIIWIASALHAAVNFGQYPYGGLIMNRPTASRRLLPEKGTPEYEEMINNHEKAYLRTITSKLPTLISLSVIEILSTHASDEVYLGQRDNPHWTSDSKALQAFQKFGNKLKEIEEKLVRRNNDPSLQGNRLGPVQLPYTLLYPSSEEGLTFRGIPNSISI
Protocol: Lipoxygenase: Soybean 15-lipoxygenase (SLO) was buffer exchanged into 50 mM borate buffer, pH 9.0 containing 10% (v/v) glycerol. The resulting protein solution was concentrated to approximately 100 μM, based upon the supplier’s activity per mL and specific activity per mg. The active-site iron oxidation state was further evaluated by EPR under three treatment conditions: 1) No treatment, 2) oxidation with 3-fold molar excess of lipid hydroperoxide (final concentration of 300 μM) from an ethanol stock, 3) oxidation with 3-fold molar excess of lipid hydroperoxide followed by 10-fold molar excess of αTHQ or αT3HQ (final concentration of 1 mM) from a DMSO stock. All samples contained the same final concentrations of ethanol and DMSO as sample 3. The EPR spectra of buffer alone were also evaluated to allow for baseline subtraction.
CW-EPR spectra were recorded at 150 K on a Bruker ELEXYS E540 spectrometer fitted with an X-band microwave bridge, a Super High Sensitivity Resonator (SHQ), and a Nitrogen VT apparatus. The spectra were recorded at 9.43 GHz with 1.002 mW microwave power, 10 G modulation amplitude, 100 kHz modulation frequency, 25 scans.

[4] = tested on: Mouse striatal Q7 cells (STHdhQ7/Q7); test: RSL3 ferroptosis cell rescue (cellular survival assay, CellTiter-Glo)
Q7 cells [5] = test: Cellular lipid oxidation assay (BODIPY 581/591 C11, RSL3-treated Q7 cells); assay type: cell-based, mouse; details: RSL3 2 μM, 6-point titration, time-lapse microscopy
Protocol: Ferroptosis was induced by RSL3 (2 μM final concentration) in Q7 cells as described above. The protective activity of co-treated compounds was assessed also as described above. The rate of cellular lipid oxidation after GPX4 inhibition was assessed by monitoring the time-dependent changes in green fluorescence of cells pre-labeled with BODIPY™ 581/591 C11 dye (5 μM, 30-minute labeling period; Thermo Fisher/Invitrogen) using the IncuCyte S3 live-cell imaging apparatus (Sartorius) using a 10x objective. Cells (three images per field; at least three replicate wells per condition) were imaged once hourly for up to 18 hours after compound and RSL3 addition. Quantification of cell images was performed using the IncuCyte Zoom software using the Basic Analyzer tool which utilized an algorithm that calculated the total green-positive area per well where “green-positive” was defined as 1.45 times the local background-subtracted fluorescent signal. After a 2-3-hour lag period post-RSL3 treatment, the cellular green fluorescence signal began increasing. The rate of change in total green-positive area per well from 3–9 hours post-compound treatment was calculated, then expressed relative to that observed in the RSL3-only control treatment group, which was defined as 100%.

[6] = Radical-trapping antioxidant (RTA) activity assay in DOPC liposomes; details: 50 μM compound, 2 mol% in DOPC liposomes, BODIPY 581/591 C11 quenching; liposome-only control = 1
[7] = target: T2, Rabbit 15-lipoxygenase (rLOX15) (Oryctolagus cuniculus, UniProt P12530); test: Lipoxygenase enzyme inhibition assay; assay type: biochemical; details: rabbit 15-LO
T2 construct: purchased Enzo Life Sciences, Inc. BML-PL015
T2 sequence (P12530 1-663): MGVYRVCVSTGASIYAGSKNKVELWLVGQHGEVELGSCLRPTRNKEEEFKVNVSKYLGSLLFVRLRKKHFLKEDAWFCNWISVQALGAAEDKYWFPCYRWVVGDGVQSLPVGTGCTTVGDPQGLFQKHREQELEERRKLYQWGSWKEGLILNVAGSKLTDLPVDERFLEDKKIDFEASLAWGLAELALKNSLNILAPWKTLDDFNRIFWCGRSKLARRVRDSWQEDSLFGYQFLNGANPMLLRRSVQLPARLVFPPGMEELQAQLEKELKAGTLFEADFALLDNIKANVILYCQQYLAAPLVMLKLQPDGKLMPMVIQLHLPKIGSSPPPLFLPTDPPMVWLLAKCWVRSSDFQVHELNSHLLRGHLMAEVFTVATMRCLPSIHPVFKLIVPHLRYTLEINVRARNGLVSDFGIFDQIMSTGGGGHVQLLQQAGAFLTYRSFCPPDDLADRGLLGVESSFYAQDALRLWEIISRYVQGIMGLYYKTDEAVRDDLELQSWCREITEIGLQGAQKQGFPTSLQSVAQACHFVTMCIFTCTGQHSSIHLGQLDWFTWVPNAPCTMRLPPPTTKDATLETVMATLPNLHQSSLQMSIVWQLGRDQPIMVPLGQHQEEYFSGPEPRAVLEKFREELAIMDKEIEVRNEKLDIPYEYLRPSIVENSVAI
Protocol: Rabbit 15-lipoxygenase (rLOX15, part number BML-PL015, lot number 3-P9009a) was obtained from Enzo Life Sciences, Inc. Sodium cholate (part number C6445, lot number 094K0209) was obtained from Sigma-Aldrich.
Stock solutions of test compounds were prepared in DMSO and then diluted to final assay concentrations in cholate mix such that final cholate and DMSO concentrations were maintained at 0.2%.

Cc1c(C)c(O)c(CC[C@](C)(O)CCC[C@H](C)CCC[C@H](C)CCCC(C)C)c(C)c1O [αTHQ, α-tocopherol hydroquinone]
cellular αTHQ exposures exceed those of αTQ (Q7 cells [1]): 3- to 4 fold | ORAC Antioxidant Activity Assay Trolox Equiv. [2]: 0.106 Trolox Equiv. | decrease in the SLO-Fe3+ signal [3]: 50% | EC50 ([4]; Mus musculus, 18 h, read-out: RSL3 Ferroptosis Cell Assay Average EC50, Q7 cells, RSL3 2 μM, 18 h co-treatment, CellTiter-Glo 2.0): 90 ± 30 nM | fold more potent than αT in preventing ferroptotic cell death ([4]; Q7 cells, RSL3, EC50 ratio vs αT): 57 fold | effect on RSL3-induced lipid oxidation (BODIPY 581/591 C11 oxidation) (Q7 cells [5]): prevented | Radical Trapping Assay AUC (Rel. Control) [6]: 1.855 | 15-LO inhibitory potency fold compared with αTQ, αT, or αTCC [7]: > 40 fold | IC50 ([7]; 50 μM arachidonic acid substrate): 2450 nM | activity at 100 µM ([7]; compound 100 μM, read-out: 15-Lipoxygenase Enzyme Assay % activity at 100 μM): 15%
